According to US20090099167A1, “Organic compounds” (Novartis Institutes for Biomedical Research, priority 2004, published 2009):

How the values were obtained:
human IGF-IR = target: T1, human IGF-IR (Homo sapiens, UniProt P08069); experiment: IGF-1R tyrosine kinase assay, GST-IGF-1R; format: biochemical; details: Table 5; read-out: IGF-1R, IC50 class
T1 construct: expresses the amino acid region 950-1337 of the mature peptide cytoplasmic domain of the human IGF-IR; made in house; host or cells: baculovirus (Bac-to-Bac)
Source text: The inhibition of IGF-1R and Ins-R can be determined as follows: The baculovirus donor vector pfbgx3IGFIRcd is used to generate a recombinant baculovirus that expresses the amino acid region 950-1337 of the mature peptide cytoplasmic domain of the human IGF-IR. To generate the cDNA fragment encoding the amino acid region 919-1343 of the intra-cytoplasmic kinase domain of the human insulin receptor, pC5hInsR is used. The fragments of the human IGF-IR and Ins-R are cloned, expressed and small-scale purified as a factor Xa-cleavable glutathione-S-transferase (GST)-fusion protein using the Bac-to-Bac™ system (GIBCO BRL) of recombinant baculovirus generation. Virus containing media is collected from the transfected cell culture and used for infection to increase its titer. Virus containing media obtained after two rounds of infection is used for large-scale protein expression. Cell extracts are prepared and loaded onto a glutathione-Sepharose (Pharmacia) column. After washing, the GST-tagged proteins are then eluted with a glutathione-containing buffer. Purified protein is stored at −70° C. in elution buffer. Tyrosine protein kinase assays with purified GST-IGF-1R and GST-ins-R are carried in a final volume of 30 μl containing 20 mM Tris-HCl, pH 7.6, 10 mM MgCl2, 0.01 mM Na3VO4, 1% DMSO, 1 mM DTT, 3 μg/ml poly(Glu,Tyr) 4:1 and 10 μM ATP (γ-[^33P]-ATP 0.1 μCi). The assay is performed in 96-well plates at ambient temperature for 20 min and terminated by addition of 25 μl 0.05 M EDTA pH 7.0. An aliquot of 40 μl is spotted with a multichannel dispenser on Whatman P81 membranes mounted in a Millipore Microtiter filter manifold connected to a low vacuum source. After elimination of liquid, the membrane is transferred to a sequence of 4 washing baths containing 0.5% H3PO4 and one with EtOH (shaking incubation for 10 min each), dried, mounted onto a Hewlett Packard TopCount manifold added 10 μl Microscint® and counted. Compounds of formula (I) show up to 90% inhibition of Ins-R at 10,000 nM, preferably between 60-90% inhibition. The inhibition of Tek can be determined as follows: The procedure of the expression, purification and assay these kinases has been described. Fabbro et al., Pharmacol. Ther. 82(2-3) 293-301 (1999). In brief, the glutathione S-transferase (GST) gene from the pAcG1 vector (Pharmingen) is excised with EcoRV and EcoRI and inserted into the cloning site of the Fast-Bac baculoviral vector (GIBCO) creating a 5530 bp vector with N-terminal cloning sites derived from the pAcG1 fusion vector (FBG0). The C-terminal cloning site may be any cloning site (from the Fast-Bac vector) downstream of the N-terminal cloning site used. N-terminally GST-fused (pAcG1, Pharmingen) KDR, Flt-1, Flk-1, Tek and PDGFR-β kinase domains are obtained from ProQinase, Freiburg, Germany. Tek is recloned into the FBG1 vector by EcoRI excision and ligation into EcoRI digested FBG1 (FBG1-Tek). The coding sequences for the whole cytoplasmic domain of c-Kit (aa 544-976) and c-Fms (aa 538-972) are amplified by PCR from human uterus and from human bone marrow cDNA libraries (Clontech), respectively. The amplified DNA fragments are fused to GST by cloning them into FBG1 as BamHI-EcoRI insertions, to yield FBG1-c-Kit and FBG1-c-Fms. Tek is recloned into the FBG0 transfer vector by EcoRI excision and ligation into EcoRI digested FBG0 (FBG-Tie2/Tek). FGFR-1 and c-met kinase domains are obtained by PCR from human A431 cells. N-terminal primers contain an overhanging EcoRI site, while C-terminal primers contain a XhoI site to aid cloning into the transfer vectors. After digestion of both the PCR fragments and FBG0 the cleavage products are gel-purified and ligated together to form the kinase constructs (FBG-Met, FBG-FGFR-1).

HER-1 = HER-1 (Homo sapiens, UniProt P00533); experiment: HER-1 kinase inhibition; format: biochemical; details: Table 5; read-out: HER-1, IC50 class
Sequence of HER-1 (P00533 25-1210, species assumed): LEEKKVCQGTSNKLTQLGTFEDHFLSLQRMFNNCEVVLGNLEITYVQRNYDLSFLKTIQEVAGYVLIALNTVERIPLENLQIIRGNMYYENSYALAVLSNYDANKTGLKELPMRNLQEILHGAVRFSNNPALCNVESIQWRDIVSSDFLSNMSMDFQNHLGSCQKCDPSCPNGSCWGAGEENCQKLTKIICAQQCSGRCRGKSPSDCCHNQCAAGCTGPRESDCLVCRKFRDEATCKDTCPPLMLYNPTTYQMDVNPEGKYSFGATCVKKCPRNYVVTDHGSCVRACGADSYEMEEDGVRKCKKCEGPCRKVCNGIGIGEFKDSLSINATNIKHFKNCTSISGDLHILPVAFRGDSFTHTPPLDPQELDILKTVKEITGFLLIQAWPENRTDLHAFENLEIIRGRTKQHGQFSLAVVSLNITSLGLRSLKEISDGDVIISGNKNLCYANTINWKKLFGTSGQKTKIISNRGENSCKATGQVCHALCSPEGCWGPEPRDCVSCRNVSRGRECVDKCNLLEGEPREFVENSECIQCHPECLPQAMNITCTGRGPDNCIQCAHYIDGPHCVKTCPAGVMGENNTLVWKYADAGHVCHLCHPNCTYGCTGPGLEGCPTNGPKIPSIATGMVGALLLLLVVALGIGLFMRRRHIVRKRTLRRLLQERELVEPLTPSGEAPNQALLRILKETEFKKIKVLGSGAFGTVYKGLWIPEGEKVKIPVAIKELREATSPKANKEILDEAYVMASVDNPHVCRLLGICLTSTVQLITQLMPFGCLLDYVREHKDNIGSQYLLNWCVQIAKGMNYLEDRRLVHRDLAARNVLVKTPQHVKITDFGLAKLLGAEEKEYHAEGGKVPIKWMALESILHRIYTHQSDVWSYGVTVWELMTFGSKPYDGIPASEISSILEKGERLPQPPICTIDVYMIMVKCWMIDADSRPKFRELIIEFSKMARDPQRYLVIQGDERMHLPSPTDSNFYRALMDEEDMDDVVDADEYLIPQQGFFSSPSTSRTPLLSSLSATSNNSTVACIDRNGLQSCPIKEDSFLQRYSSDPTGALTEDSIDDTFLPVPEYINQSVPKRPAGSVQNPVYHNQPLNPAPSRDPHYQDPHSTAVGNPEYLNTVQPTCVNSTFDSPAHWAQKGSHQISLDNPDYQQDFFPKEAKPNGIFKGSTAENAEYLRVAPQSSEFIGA

T1 sequence (P08069 980-1367): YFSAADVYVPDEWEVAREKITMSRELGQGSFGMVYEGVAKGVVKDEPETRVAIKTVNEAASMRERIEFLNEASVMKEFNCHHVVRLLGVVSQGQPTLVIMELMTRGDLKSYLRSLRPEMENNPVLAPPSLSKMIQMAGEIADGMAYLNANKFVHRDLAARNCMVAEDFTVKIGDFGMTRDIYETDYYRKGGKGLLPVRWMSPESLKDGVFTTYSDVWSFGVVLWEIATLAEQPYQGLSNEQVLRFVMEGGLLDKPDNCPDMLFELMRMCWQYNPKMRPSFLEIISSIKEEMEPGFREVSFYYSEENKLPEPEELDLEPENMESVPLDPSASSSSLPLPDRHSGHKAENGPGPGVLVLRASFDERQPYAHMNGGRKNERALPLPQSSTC

| SMILES | IC50 (human IGF-IR) [µM] | IC50 (HER-1) [µM] |
| --- | --- | --- |
| Cc1nc2c(-c3cccc(N4CCN(C)CC4)c3)cnn2c(N)c1-c1cccc(Br)c1 [Example 84, 6-(3-Bromo-phenyl)-5-methyl-3-[3-(4-methyl-piperazin-1-yl)-phenyl]-pyrazolo[1,5-a]pyrimidin-7-ylamine] | > 10 | > 10 |
| COc1ccc(-c2cnn3c(N)c(-c4ccc(F)c(Cl)c4)c(C)nc23)cc1 [Example 95, 6-(3-Chloro-4-fluoro-phenyl)-3-(4-methoxy-phenyl)-5-methyl-pyrazolo[1,5-a]pyrimidin-7-ylamine] | > 10 | > 10 |
| Cc1nc2c(-c3cccc(N4CCN(C)CC4)c3)cnn2c(N)c1-c1ccc(F)cc1 [Example 80, 6-(4-Fluoro-phenyl)-5-methyl-3-[3-(4-methyl-piperazin-1-yl)-phenyl]-pyrazolo[1,5-a]pyrimidin-7-ylamine] | > 10 | > 10 |
| COc1ccc(-c2cnn3c(N)c(-c4cccc(Cl)c4)c(C)nc23)cc1OC [Example 93, 6-(3-Chloro-phenyl)-3-(3,4-dimethoxy-phenyl)-5-methyl-pyrazolo[1,5-a]pyrimidin-7-ylamine] | > 10 | > 10 |
| Cc1nc2c(-c3cccc(N4CCN(CCO)CC4)c3)cnn2c(N)c1-c1ccc(F)cc1 [Example 97, 2-(4-{3-[7-Amino-6-(4-fluoro-phenyl)-5-methyl-pyrazolo[1,5-a]pyrimidin-3-yl]-phenyl}-piperazin-1-yl)-ethanol] | > 10 | > 10 |
| Cc1nc2c(-c3cccc(N4CCN(CCO)CC4)c3)cnn2c(N)c1-c1ccc(F)c(F)c1 [Example 101, 2-(4-{3-[7-Amino-6-(3,4-difluoro-phenyl)-5-methyl-pyrazolo[1,5-a]pyrimidin-3-yl]-phenyl}-piperazin-1-yl)-ethanol] | > 10 | > 10 |
| Cc1nc2c(-c3cccc(N4CCN(C)CC4)c3)cnn2c(N)c1-c1cccc(Cl)c1 [Example 72, 6-(3-Chloro-phenyl)-5-methyl-3-[3-(4-methyl-piperazin-1-yl)-phenyl]-pyrazolo[1,5-a]pyrimidin-7-ylamine] | > 10 | 1 to 10 |
